# Laboratory results: patent US8247579B2, “Spirocyclic tetronic acid derivatives” (Bayer Cropscience AG, priority 2007, dated 2012)
# How the values were obtained:
# [1] = Determination of the logP values by HPLC (EEC Directive 79/831 Annex V.A8); format: physicochemical; details: reversed-phase C18 HPLC column, reversed-phase C18, 43° C., acidic range (pH 2.3)
# Protocol: Determination of the LogP Values The logP values given in the table were determined in accordance with EEC Directive 79/831 Annex V .A8 by HPLC (High Performance Liquid Chromatography) on a reversed-phase column (C18). Temperature: 43° C. Mobile phases for the determination in the acidic range (pH 2.3): 0.1% aqueous phosphoric acid, acetonitrile; linear gradient from 10% acetonitrile to 90% acetonitrile The calibration was carried out using unbranched alkan-2-ones (having 3 to 16 carbon atoms) with known logP values (determination of the logP values by the retention times using linear interpolation between two successive alkanones).
# [2] = test system: mixed thrips population (Frankliniella occidentalis); experiment: Frankliniella occidentalis (FRANOC spray treatment); format: in vivo; details: bean leaf disks
# Protocol: Frankliniella occidentalis (FRANOC Spray Treatment)
# If addition of ammonium salts is required, these are added by pipette in a concentration of 1000 ppm after dilution of the respective finished solution of the preparation.
# [3] = test system: greenhouse red spider mite (Tetranychus urticae sensitive); experiment: Tetranychus test, OP-resistant/dip treatment (TETRUR); format: in vivo; details: dip
# Protocol: Tetranychus Test, OP-Resistant/Dip Treatment (TETRUR)
# (§1) If addition of ammonium salts, penetrants or ammonium salts and penetrants is required, these are added by pipette in a concentration of 1000 ppm after dilution of the respective finished solution of the preparation.
# [4] = test system: Green peach aphid (Myzus persicae); experiment: Myzus persicae test (MYZUPE), dip treatment of cabbage leaves; format: in vivo; details: 100 ppm
# Protocol: Myzus persicae Test (MYZUPE)
# as §1
# Cabbage leaves (Brassica oleracea) which are heavily infested by the Green peach aphid (Myzus persicae) are treated by being dipped into the active compound preparation of the desired concentration.
# (§2) After the desired period of time, the kill in % is determined.
# [5] = test system: Tetranychus urticae, resistant; experiment: Tetranychus urticae (TETRUR RAUS) spray test, resistant mites on bush bean plants; format: in vivo; details: concentration of 5 ppm, spraying
# Protocol: Tetranychus urticae (TETRUR RAUS)
# Bush bean plants (Phaseolus vulgaris) infested with a mixed population of resistant greenhouse red spider mites (Tetranychus urticae, resistant) are treated by spraying with the active compound preparation of the desired concentration.
# as §2
# [6] = test system: larvae of the mustard beetle (Phaedon cochleariae); experiment: Phaedon test (PHAECO spray treatment); details: application rate of 100 g/ha, Chinese cabbage discs
smiles,measurement,setting,value
Cc1cc(C)c(C2=C(OC(=O)CC34CC5CC(CC(C5)C3)C4)C3(CCCC3)OC2=O)c(C)c1 [Example I-1],chromatographic logP,[1],6.94
same,effect in % (thrips killed),[2]; application rate of 500 g/ha,80%
COC(C)(C)CC(=O)OC1=C(c2c(C)cc(C)cc2C)C(=O)OC12CCCC2 [Example I-5],TETRUR % 7 d (effect in %),[3]; 0.78125 ppm,30%
same,TETRUR % 7 d (effect in %),[3]; 1.5625 ppm,50%
same,TETRUR % 7 d (effect in %),[3]; 3.125 ppm,90%
same,chromatographic logP,[1],4.45
same,MYZUPE % 6 d (kill in %),[4],55%
CCC(C)(C)CC(=O)OC1=C(c2c(C)cc(C)cc2C)C(=O)OC12CCCC2 [Example I-3],kill in %,[5],97%
Cc1cc(C)c(C2=C(OC(=O)CC3(C)OCCO3)C3(CCCC3)OC2=O)c(C)c1 [Example I-2],effect in % (beetle larvae killed),[6],67%
same,chromatographic logP,[1],3.85
same,effect in % (thrips killed),[2]; application rate of 100 g/ha,63%
"Cc1cc(C)c(C2=C(OC(=O)CC(C)(C)C)C3(CCCC3)OC2=O)c(C)c1 [spiromesifen, reference compound]",TETRUR % 7 d (effect in %),[3]; 0.78125 ppm,0%
same,TETRUR % 7 d (effect in %),[3]; 1.5625 ppm,30%
same,TETRUR % 7 d (effect in %),[3]; 3.125 ppm,50%
same,effect in % (beetle larvae killed),[6],33%
same,MYZUPE % 6 d (kill in %),[4],30%
same,effect in % (thrips killed),[2]; application rate of 100 g/ha,0%
same,effect in % (thrips killed),[2]; application rate of 500 g/ha,0%
same,kill in %,[5],30%
